Values quoted from earlier work in US6441051B1, “Insect eradicator and method” (priority 2001, dated 2002).

Tested on: fire ants
Conditions: d-limonene at about 5% concentration, after twenty-four hours

SMILES: C=C(C)[C@H]1CC=C(C)CC1 [d-limonene]
- kill rate: approximately 70%
